Where two headings read alike, the source gives them in different places.
Assays:
Type in all cases: cell-based
TRP channel (TRPM8) = target: T1, TRP channel (TRPM8) (Mus musculus, UniProt Q8R4D5); assay: Ca2+-imaging of stable HEK293T cell line TRPM8; conditions: HEK-293T, read-out: Percent Inhibition TRPM8
T1 construct: Full-length cDNAs for mosquito (Anopheles gambiae) odorant receptor (OR1, OR2, OR7, OR8, OR28), and fly (Drosophila melanogaster) odorant receptor (Or47a, Or83b), mouse TRP channel (TRPM8); expressed in transfected cells
Experimental: (§1) Full-length cDNAs for mosquito (Anopheles gambiae) odorant receptor (OR1, OR2, OR7, OR8, OR28), and fly (Drosophila melanogaster) odorant receptor (Or47a, Or83b), mouse TRP channel (TRPM8), and mouse serotonin receptor (5HT3) were obtained and subcloned into mammalian expression vectors. The following mammalian expression vectors were used:
(§2) Stable cell lines OR1/OR7, OR2/OR7, OR8/OR7, OR10/OR7, OR28/OR7 and TRPM8 were generated from HEK293T cells. HEK293T-based cell lines were cultured in DMEM supplemented with these additional antibiotics: 6 μg/mL blasticidin and 1 μg/mL puromycin, with the exception of the TRPM8 cell lines, which was cultured in DMEM supplemented with 1 μg/mL puromycin.
(§3) Cells were trypsinized and split into 35 mm dishes one day before transfection. Confluent cells (60-70%) in 35 mm dishes were transfected with 1 μg of insect OR(X) plasmids in pME18s-bla and 1 μg of OR7-pME18s-puro using lipofectamine 2000. For Anopheles odorant receptors, two plasmids were co-transfected into HEK cells: the ligand-specific receptor (OR1, OR2, OR8, OR28) and the corresponding olfactory co-receptor: OR7. Cell lines containing TRPM8 were transfected with single plasmid.
(§4) Stable cell lines were cultured in 10 cm dishes, and confluent cells (70-80%) were trypsinized. 10,000 cells/20 μL were transferred into each well of 384-well plates coated with poly-D-lysine, and cultured for 2 days. For Flip-In T-Rex cells (cell lines expressing Or47a/Or83b and 5HT3), 5 μL of tetracycline (5 μg/mL) were added 1 day before the assay. 20 μL of Ca-4 dye was loaded into each well for 1.5 hr at room temperature in the dark, and the dye-loaded plates were subjected to Ca^2+-imaging using a Hamamatsu FDSS6000 real time fluorescence plate reader. Odorant solutions (9× final concentration) were prepared by dissolving 1M stock solutions into Hank's Buffered Salt Solution (HBSS), and 30 μL of odor solution was transferred to each well in 384-well plates.
(§5) Compounds ([…] in DMSO) were stored in 384-well plates, and last two columns (32 wells total) contained only DMSO. 200 nL of small compounds were transferred into the odorant plates before the assay using the Perkin-Elmer Janus workstation. The odorant plates were spun down to remove air bubbles, and placed on the FDSS6000 plate loader, and 5 μL of odorant solution was applied to the cell plate on the FDSS6000. Ca^2+ increase was monitored with fluorescence at 525 nm by excitation at 485 nm.

OR28/OR7 = OR28/OR7 (Anopheles gambiae, UniProt A0A1S4GFY3+Q7QCC7); assay: Ca2+-imaging of stable HEK293T cell line OR28/OR7; conditions: for inhibition at 4 µM: HEK-293T, read-out: Percent Inhibition OR28 OR7
Experimental: as §1, §2, §3, §4, §5

OR8/OR7 = OR8/OR7 (Anopheles gambiae, UniProt Q7PUT5+Q7QCC7); assay: Ca2+-imaging of stable HEK293T cell line OR8/OR7; conditions: for inhibition at 4 µM: HEK-293T, read-out: Percent Inhibition OR8 OR7; for IC50: Table B, read-out: IC50 OR8
Experimental: as §1, §2, §3, §4, §5

Or47a/Or83b = target: T2, Or47a/Or83b (Drosophila melanogaster, UniProt P81921+Q9VNB5); assay: Ca2+-imaging of stable Flip-In T-Rex cell line Or47a/Or83b; conditions: for inhibition at 4 µM: read-out: Percent Inhibition OR47a OR83b; for IC50: Table B, read-out: IC50 OR47a
T2 construct: Full-length cDNAs for mosquito (Anopheles gambiae) odorant receptor (OR1, OR2, OR7, OR8, OR28), and fly (Drosophila melanogaster) odorant receptor (Or47a, Or83b); expressed in transfected cells
T2 sequence (P81921 1-385): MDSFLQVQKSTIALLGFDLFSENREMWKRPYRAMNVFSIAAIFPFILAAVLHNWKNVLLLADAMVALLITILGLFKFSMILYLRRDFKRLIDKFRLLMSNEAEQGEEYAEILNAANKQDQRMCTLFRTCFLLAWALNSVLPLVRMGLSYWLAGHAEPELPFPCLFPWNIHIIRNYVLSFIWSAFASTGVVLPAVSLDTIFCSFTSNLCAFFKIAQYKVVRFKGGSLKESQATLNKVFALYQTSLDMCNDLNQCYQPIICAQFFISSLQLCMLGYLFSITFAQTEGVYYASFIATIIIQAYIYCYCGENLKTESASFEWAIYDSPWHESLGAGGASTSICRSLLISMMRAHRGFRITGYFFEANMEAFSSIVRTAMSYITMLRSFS
T2 sequence (Q9VNB5 1-486): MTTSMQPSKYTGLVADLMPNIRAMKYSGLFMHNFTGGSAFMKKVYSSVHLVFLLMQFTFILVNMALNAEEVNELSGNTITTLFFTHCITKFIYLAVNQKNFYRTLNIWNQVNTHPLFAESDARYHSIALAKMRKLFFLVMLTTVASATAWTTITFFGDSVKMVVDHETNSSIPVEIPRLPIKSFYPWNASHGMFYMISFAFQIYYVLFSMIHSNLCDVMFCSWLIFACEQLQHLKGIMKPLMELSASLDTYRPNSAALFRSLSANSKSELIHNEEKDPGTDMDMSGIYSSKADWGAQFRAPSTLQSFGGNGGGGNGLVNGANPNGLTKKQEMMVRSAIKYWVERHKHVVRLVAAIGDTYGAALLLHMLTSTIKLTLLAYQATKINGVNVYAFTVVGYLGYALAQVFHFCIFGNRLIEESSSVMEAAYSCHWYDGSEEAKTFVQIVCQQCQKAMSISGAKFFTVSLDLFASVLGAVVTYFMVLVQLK
Experimental: as §1
Stable cell lines Or47a/Or83b and 5HT3 were generated from Flip-In T-Rex cells. Flip-In T-Rex-based cell lines were cultured in DMEM supplemented with these additional antibiotics: 6 μg/mL blasticidin and 100 μg/mL hygromycin.
Cells were trypsinized and split into 35 mm dishes 1 day before transfection. Confluent cells (60-70%) in 35 mm dishes were co-transfected with 1 μg of Or47a/Or83b plasmid in pcDNA5/FRT/TO/IRES plus the pOG44 plasmid or 1 μg of 5HT3 plasmid in pcDNA5/FRT/TO plus the pOG44 plasmid using lipofectamine 2000. Co-transfection of pOG44 and pcDNA5/FRT/TO/IRES or pcDNA5/FRT/TO allows expression of Flp recombinase and integration of the pcDNA5 plasmid into the genome via the FRT site. After one day of incubation, the transfected cells were transferred into 10 cm dishes with DMEM containing antibiotics: 20 μg/mL of hygromycin and 6 μg/mL of blasticidin. The concentration of Hygromycin was increased to 100 μg/mL when the population of cells became 30-40% confluent. The cells were cultured by changing medium every two days until cell clumps appeared. The clumps were picked and transferred into 96 well plates with DMEM containing 100 μg/mL of Hygromycin and 6 μg/mL of blasticidin. The cells were grown and transferred to 24 well plates, and ligand-evoked calcium increases were tested using the Hamamatsu FDSS6000 real time fluorescence plate reader.
as §4, §5

T1 sequence (Q8R4D5 whole entry): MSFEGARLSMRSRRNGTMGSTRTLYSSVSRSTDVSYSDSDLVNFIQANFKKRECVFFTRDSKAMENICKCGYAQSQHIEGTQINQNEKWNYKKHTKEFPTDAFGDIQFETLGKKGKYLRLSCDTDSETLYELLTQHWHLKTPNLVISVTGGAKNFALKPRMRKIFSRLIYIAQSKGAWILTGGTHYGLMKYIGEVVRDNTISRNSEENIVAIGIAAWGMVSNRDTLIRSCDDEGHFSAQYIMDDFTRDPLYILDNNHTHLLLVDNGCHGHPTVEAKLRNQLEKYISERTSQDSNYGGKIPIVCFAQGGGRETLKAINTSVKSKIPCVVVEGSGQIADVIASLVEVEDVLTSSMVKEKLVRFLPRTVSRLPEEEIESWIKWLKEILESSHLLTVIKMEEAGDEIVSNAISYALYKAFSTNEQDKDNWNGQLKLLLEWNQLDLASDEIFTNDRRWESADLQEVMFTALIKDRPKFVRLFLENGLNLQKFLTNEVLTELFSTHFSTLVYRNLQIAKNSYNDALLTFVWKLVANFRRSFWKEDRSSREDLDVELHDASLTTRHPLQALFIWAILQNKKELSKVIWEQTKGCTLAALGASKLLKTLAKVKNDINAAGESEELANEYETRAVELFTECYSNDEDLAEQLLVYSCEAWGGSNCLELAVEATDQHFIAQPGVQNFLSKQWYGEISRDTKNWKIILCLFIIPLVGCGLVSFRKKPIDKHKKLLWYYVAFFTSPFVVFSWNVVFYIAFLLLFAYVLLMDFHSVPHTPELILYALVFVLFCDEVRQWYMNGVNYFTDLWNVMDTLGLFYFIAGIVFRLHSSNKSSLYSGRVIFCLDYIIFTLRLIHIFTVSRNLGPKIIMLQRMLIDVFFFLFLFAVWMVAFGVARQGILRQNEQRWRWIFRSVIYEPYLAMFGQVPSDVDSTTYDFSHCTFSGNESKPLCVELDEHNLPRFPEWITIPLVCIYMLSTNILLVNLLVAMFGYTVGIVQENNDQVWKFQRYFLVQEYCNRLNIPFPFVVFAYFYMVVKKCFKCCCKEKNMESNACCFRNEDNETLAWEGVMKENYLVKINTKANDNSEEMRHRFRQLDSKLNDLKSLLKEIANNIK
Sequence of OR8/OR7 (Q7QCC7 whole entry): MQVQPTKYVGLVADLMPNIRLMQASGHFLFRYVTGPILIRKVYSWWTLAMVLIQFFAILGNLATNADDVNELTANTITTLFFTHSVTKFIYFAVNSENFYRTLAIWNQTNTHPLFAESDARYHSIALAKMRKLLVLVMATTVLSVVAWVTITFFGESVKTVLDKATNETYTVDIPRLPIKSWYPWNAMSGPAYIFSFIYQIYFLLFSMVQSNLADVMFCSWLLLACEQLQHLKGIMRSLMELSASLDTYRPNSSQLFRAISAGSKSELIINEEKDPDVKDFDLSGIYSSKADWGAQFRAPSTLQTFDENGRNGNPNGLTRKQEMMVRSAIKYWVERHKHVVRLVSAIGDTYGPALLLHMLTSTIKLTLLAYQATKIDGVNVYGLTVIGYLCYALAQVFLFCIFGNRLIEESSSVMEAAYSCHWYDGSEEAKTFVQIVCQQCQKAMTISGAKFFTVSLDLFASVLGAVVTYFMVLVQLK
Sequence of OR8/OR7 (Q7PUT5 entry or part of it): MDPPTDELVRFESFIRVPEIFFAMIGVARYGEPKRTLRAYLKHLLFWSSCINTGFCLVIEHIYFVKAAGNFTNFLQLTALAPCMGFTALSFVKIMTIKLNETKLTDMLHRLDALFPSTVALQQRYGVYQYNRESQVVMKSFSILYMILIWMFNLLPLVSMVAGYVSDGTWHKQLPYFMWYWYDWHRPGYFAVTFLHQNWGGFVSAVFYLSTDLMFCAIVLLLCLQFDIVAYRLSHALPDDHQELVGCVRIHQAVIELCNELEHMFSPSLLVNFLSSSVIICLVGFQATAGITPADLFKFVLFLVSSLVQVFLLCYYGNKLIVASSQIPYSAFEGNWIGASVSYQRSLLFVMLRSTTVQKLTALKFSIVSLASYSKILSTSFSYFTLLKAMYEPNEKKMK
Sequence of OR28/OR7 (A0A1S4GFY3 entry or part of it): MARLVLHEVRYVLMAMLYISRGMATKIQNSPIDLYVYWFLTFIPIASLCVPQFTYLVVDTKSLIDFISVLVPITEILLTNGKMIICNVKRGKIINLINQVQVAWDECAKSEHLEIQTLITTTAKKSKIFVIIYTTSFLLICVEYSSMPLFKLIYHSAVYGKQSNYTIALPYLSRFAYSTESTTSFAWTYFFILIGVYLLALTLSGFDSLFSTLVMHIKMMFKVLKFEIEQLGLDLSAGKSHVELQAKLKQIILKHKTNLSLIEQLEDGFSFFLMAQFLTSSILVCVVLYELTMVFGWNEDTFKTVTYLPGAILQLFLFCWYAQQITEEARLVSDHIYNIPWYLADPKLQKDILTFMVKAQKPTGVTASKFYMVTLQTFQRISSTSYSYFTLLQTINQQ
Sequence of OR28/OR7 (Q7QCC7 whole entry): as the sequence (Q7QCC7 whole entry) above

| Structure (SMILES) | inhibition at 4 µM (TRP channel (TRPM8); compound applied at 4 μM) [%] | inhibition at 4 µM (OR28/OR7; compound applied at 4 μM) [%] | IC50 (OR28/OR7; Table B, read-out: IC50 OR28) [nM] | inhibition at 4 µM (OR8/OR7; compound applied at 4 μM) [%] | inhibition at 4 µM (Or47a/Or83b; compound applied at 4 μM) [%] | IC50 (OR8/OR7) [nM] | IC50 (Or47a/Or83b) [nM] | inhibition at 4 µM (TRP channel (TRPM8)) [%] | IC50 (OR28/OR7) [nM] | inhibition at 4 µM (OR28/OR7) [%] | inhibition at 4 µM (OR8/OR7) [%] | inhibition at 4 µM (Or47a/Or83b) [%] |
| --- | --- | --- | --- | --- | --- | --- | --- | --- | --- | --- | --- | --- |
| COc1ccccc1CC(=O)N1CCOC(COc2ccc(C)cc2)C1 (stereo not shown) [RU-0050390] | < 25 | > 75 | < 100 | < 25 | 26 to 50 | – | – | – | – | – | – | – |
| CCN(CC)c1onc(-c2ccc(F)cc2)c1CN(CCCOC)C(=O)c1ccc2c(c1)OCO2 [RU-0036983] | 26 to 50 | > 75 | < 100 | 51 to 74 | 51 to 74 | > 1000 | > 1000 | – | – | – | – | – |
| CC(C)CN(Cc1nccn1Cc1ccc(Cl)cc1Cl)C(=O)c1ccccc1F [RU-0055322] | < 25 | > 75 | < 100 | < 25 | 26 to 50 | – | – | – | – | – | – | – |
| CCNc1nc(NC(C)C)nc(N(C#N)Cc2ccccc2)n1 [RU-0015806] | 26 to 50 | > 75 | < 100 | < 25 | 51 to 74 | – | < 100 | – | – | – | – | – |
| Cc1cc(C)c(Cn2ccnc2CN(C(=O)c2ccccc2F)C(C)C)c(C)c1 [RU-0048001] | 26 to 50 | > 75 | < 100 | 26 to 50 | 51 to 74 | – | > 1000 | – | – | – | – | – |
| COc1ccccc1C(=O)C1CCCN(C(=O)c2cccc(N3CCOCC3)c2)C1 (stereo not shown) [RU-0029350] | 26 to 50 | > 75 | 100 to 1000 | 26 to 50 | 51 to 74 | > 1000 | < 100 | – | – | – | – | – |
| C=CCOc1cccc(C(=O)N2CCCC(C(=O)c3ccccc3OC)C2)c1 (stereo not shown) [RU-0029409] | 26 to 50 | > 75 | < 100 | 26 to 50 | 51 to 74 | – | – | – | – | – | – | – |
| CCN(CC)C(=O)Oc1ccc2c(ccn2Cc2ccccc2Cl)c1NC(=O)CCCCC(=O)OC [RU-0075446] | – | – | – | – | – | – | – | < 25 | < 100 | > 75 | < 25 | < 25 |
| c1ccc(CNc2nc(NCc3ccco3)nc(N3CCOCC3)n2)cc1 [RU-0020050] | 26 to 50 | > 75 | 100 to 1000 | > 75 | 51 to 74 | > 1000 | < 100 | – | – | – | – | – |
| CC(C)CN(Cc1nccn1Cc1c(F)cccc1Cl)C(=O)c1ccc(F)cc1 [RU-0048054] | < 25 | < 25 | < 100 | < 25 | 26 to 50 | – | – | – | – | – | – | – |

— patent publication US20130324522A1, “INSECT ODORANT RECEPTOR ANTAGONISTS” (THE ROCKEFELLER UNIVERSITY, priority 2010, published 2013)
